From US5442064A, “Carboxylic acid derivatives, pharmaceutical compositions containing these compounds and processes for preparing them” (Dr. Karl Thomae GmbH, priority 1992, dated 1995)
Where a name gives a salt, the structure may show the parent alone.

How the values were obtained:
[1] = biological target: human thrombocytes; test: Competitive binding of ^3 H-BIBU 52/test substance to human thrombocytes; details: human thrombocytes in plasma; ^3 H-BIBU 52 5 nM; ambient temperature, 20 minutes
Procedure: 1. Competitive binding of ^3 H-BIBU 52/test substance to human thrombocytes: […] Case 5/1093-FL), which replaces the ^125 I fibrinogen ligand known from the literature and various concentrations of the substance to be tested. The free and bound ligand is separated by centrifuging and quantified by scintillation counting. The inhibition of ^3 H-BIBU 52 binding by the test substance is determined from the measurements obtained. In order to do this, donor blood is taken from an anticubital vein and anticoagulated with trisodium citrate (final concentration 13 mM). The blood is centrifuged for 10 minutes at 170×g and the supernatant platelet-rich plasma (PRP) is removed. The remaining blood is vigorously centrifuged once more in order to obtain plasma. The PRP is diluted 1:10 with autologous plasma. 750 μl are incubated with 50 μl of physiological saline solution, 100 μl of test substance solution, 50 μl of ^14 C-sucrose (3,700 Bq) and 50 μl of ^3 H-BIBU 52 (final concentration: 5 nM) at ambient temperature for 20 minutes. In order to measure the non-specific binding, 5μl of BIBU 52 (final concentration: 30 μM) are used instead of the test substance. The samples are centrifuged for 20 seconds at 10,000×g and the supernatant is poured off. 100 μl thereof are measured in order to determine the free ligand. The pellet is dissolved in 500 μl of 0.2N NaOH, 450 μl are mixed with 2 ml of scintillator and 25 μl of 5N HCl and measured. The residual plasma remaining in the pellet is determined from the ^14 C-content and the bound ligand is determined from the ^3 H-measurement. After the non-specific binding has been deducted, the pellet activity is plotted against the concentration of the test substance and the concentration for 50% inhibition of binding is determined. 2. Antithrombotic activity

[2] = system: platelet aggregation; test: Inhibition of platelet aggregation (collagen-induced, Born and Cross, platelet-rich plasma of healthy volunteers); type: cell-based; details: 10 minutes preincubation at 37° C
Procedure: In order to do this, donor blood is taken from an anticubital vein and anticoagulated with trisodium citrate (final concentration 13 mM). The blood is centrifuged for 10 minutes at 170×g and the supernatant platelet-rich plasma (PRP) is removed. The remaining blood is vigorously centrifuged once more in order to obtain plasma. The PRP is diluted 1:10 with autologous plasma. 750 μl are incubated with 50 μl of physiological saline solution, 100 μl of test substance solution, 50 μl of ^14 C-sucrose (3,700 Bq) and 50 μl of ^3 H-BIBU 52 (final concentration: 5 nM) at ambient temperature for 20 minutes. In order to measure the non-specific binding, 5μl of BIBU 52 (final concentration: 30 μM) are used instead of the test substance. The samples are centrifuged for 20 seconds at 10,000×g and the supernatant is poured off. 100 μl thereof are measured in order to determine the free ligand. The pellet is dissolved in 500 μl of 0.2N NaOH, 450 μl are mixed with 2 ml of scintillator and 25 μl of 5N HCl and measured. The residual plasma remaining in the pellet is determined from the ^14 C-content and the bound ligand is determined from the ^3 H-measurement. After the non-specific binding has been deducted, the pellet activity is plotted against the concentration of the test substance and the concentration for 50% inhibition of binding is determined. 2. Antithrombotic activity The thrombocyte aggregation is measured using the method of Born and Cross (J. Physiol. 170: 397 (1964)) in platelet-rich plasma taken from healthy volunteers. To inhibit coagulation the blood is mixed with 3.14% sodium citrate in a volume ratio of 1:10. The pattern of the decrease in optical density of the platelet suspension is photometrically measured and recorded after the addition of the aggregation-triggering substance. The rate of aggregation is determined from the angle of inclination of the density curve. The point on the curve where there is maximum light transmittance is used to calculate the optical density. The concentration of collagen used is as small as possible but sufficient to produce an irreversible reaction curve. Standard commercial collagen produced by Hormonchemie of Munich is used. Before the addition of the collagen the plasma is incubated for 10 minutes with the substance at 37° C. From the concentration/activity curve an EC50 is determined, which describes the concentration giving a 50% change in the optical density in terms of the inhibition of aggregation.

Structure (SMILES) | IC50 [1] [µM] | EC50 ([2]; Homo sapiens, Platelet) [µM] | EC50 ([2]; human platelet-rich plasma) [µM]
COC(=O)[C@H]1CC[C@H](N(C)C(=O)N2CCN(c3ccc(C(=N)N)cc3)CC2)CC1 [1(1), 1-(4-amidinophenyl)-4-[N-[trans-4-(methoxycarbonyl)-cyclohexyl]-N-methyl-aminocarbonyl]-piperazine-hydrochloride] | 0.87 | 0.11 | –
COC(=O)[C@H]1CC[C@H](NC(=O)N2CCC(c3ccc(C(=N)N)cc3)CC2)CC1 [1(5), 4-(4-amidinophenyl)-1-[N-[trans-4-(methoxycarbonyl)-cyclohexyl]-aminocarbonyl]-piperidine-hydrochloride] | 1.2 | 0.08 | –
COC(=O)[C@H]1CC[C@H](N(C)C(=O)N2CCN(c3ccc(C(=N)N)cn3)CC2)CC1 [1(9), 1-(5-amidinopyrid-2-yl)-4-[N-[trans-4-(methoxycarbonyl)-cyclohexyl]-N-methyl-aminocarbonyl]-piperazine-hydrochloride] | 17 | 0.09 | –
COC(=O)CC1CCN(C(=O)N2CCN(c3ccc(C(=N)N)cc3)CC2)CC1 [1(25), 1-(4-amidinophenyl)-4-[4-(methoxycarbonylmethyl)-piperidinocarbonyl]-piperazine-hydrochloride] | 30 | 6.8 | –
CN(C(=O)N1CCN(c2ccc(C(=N)N)cc2)CC1)[C@H]1CC[C@H](C(=O)O)CC1 [2(1), 1-(4-amidinophenyl)-4-[N-(trans-4-carboxycyclohexyl)-N-methyl-aminocarbonyl]-piperazine-dihydrochloride] | 0.018 | 0.04 | –
N=C(N)c1ccc(N2CCC(C(=O)N[C@H]3CC[C@H](C(=O)O)CC3)CC2)nc1 [2(2), 1-(5-amidinopyrid-2-yl)-4-[N-(trans-4-carboxycyclohexyl)-aminocarbonyl]-piperidine-dihydrochloride] | 0.047 | 0.09 | –
N=C(N)c1ccc(C2CCN(C(=O)N[C@H]3CC[C@H](C(=O)O)CC3)CC2)cc1 [2(3), 4-(4-amidinophenyl)-1-[N-(trans-4-carboxycyclohexyl)-aminocarbonyl]-piperidine-hydrochloride] | 0.0045 | – | 0.03
N=C(N)c1ccc(N2CCN(C(=O)N(Cc3ccccc3)[C@H]3CC[C@H](C(=O)O)CC3)CC2)cc1 [2(6), 1-(4-amidinophenyl)-4-[N-benzyl-N-(trans-4-carboxycyclohexyl)-aminocarbonyl]-piperazine-dihydrochloride] | 0.0015 | 0.04 | –
NCc1ccc(C2CCN(C(=O)N[C@H]3CC[C@H](C(=O)O)CC3)CC2)cc1 [2(11), 4-(4-aminomethylphenyl)-1-[N-(trans-4-carboxycyclohexyl)-aminocarbonyl]-piperidine-hydrochloride] | 0.23 | 0.38 | –
N=C(N)c1ccc(N2CCN(C(=O)N3CCC(CC(=O)O)CC3)CC2)cc1 [2(17), 1-(4-amidinophenyl)-4-[4-(carboxymethyl)-piperidinocarbonyl]-piperazine-dihydrochloride] | 0.044 | 0.13 | –
N=C(N)c1ccc(N2CCN(C(=O)N3CC=C(CC(=O)O)CC3)CC2)cc1 [2(19), 1-(4-amidinophenyl)-4-[4-(carboxymethyl)-3,4-dehydro-piperidinocarbonyl]-piperazine-dihydrochloride] | 0.37 | 0.62 | –
NCc1ccc(N2CCN(C(=O)N[C@H]3CC[C@H](C(=O)O)CC3)CC2)nc1 [2(22), 1-(5-aminomethylpyrid-2-yl)-4-[N-(trans-4-carboxycyclohexyl)-aminocarbonyl]-piperazine-dihydrochloride] | 0.31 | 0.68 | –
N=C(N)c1ccc(N2CCC(C(=O)N3CCC(CC(=O)O)CC3)CC2)nc1 [2(42), 1-(5-amidinopyrid-2-yl)-4-[4-(carboxymethyl)-piperidinocarbonyl]-piperidine-dihydrochloride] | 0.1 | 0.17 | –
N=C(NC(=O)OCc1ccccc1)c1ccc(N2CCN(C(=O)N[C@H]3CC[C@H](C(=O)O)CC3)CC2)cc1 [3(1), 1-[4-(N-benzyloxycarbonyl-amidino)-phenyl]-4-[N-(trans-4-carboxycyclohexyl)-aminocarbonyl]-piperazine] | 0.23 | 0.66 | –
N=C(N)c1ccc(C2CCN(C(=O)N[C@H]3CC[C@H](C(=O)O)CC3)CC2)cc1 [3(2), 4-(4-amidinophenyl)-1-[N-(trans-4-carboxycyclohexyl)-aminocarbonyl]-piperidine] | 0.014 | – | 0.1
N=C(N)c1ccc(N2CCC(C(=O)N3CCC(CC(=O)O)CC3)CC2)cc1 [3(4), 1-(4-amidinophenyl)-4-[4-(carboxymethyl)-piperidino-carbonyl]-piperidine] | 0.078 | 0.1 | –
N=C(N)c1ccc(N2CCC(CC(=O)NCCC(=O)O)CC2)cc1 [3(12), 1-(4-amidinophenyl) -4-[N-(2-carboxyethyl)-amino-carbonylmethyl]-piperidine] | 0.18 | 0.29 | –
N=C(N)c1ccc(N2CCC(C(=O)N[C@H]3CC[C@H](C(=O)O)CC3)CC2)cc1 [3(15), 1-(4-amidinophenyl)-4-[N-(trans-4-carboxycyclo-hexyl)-aminocarbonyl]-piperidine] | 0.0057 | 0.03 | –
NCc1ccc(N2CCC(C(=O)N[C@H]3CC[C@H](C(=O)O)CC3)CC2)cc1 [3(17), 1-(4-aminomethylphenyl)-4-[N-(trans-4-carboxycyclo-hexyl)-aminocarbonyl]-piperidine-hydrochloride] | 0.074 | 0.18 | –
N=C(N)c1ccc(N2CCC(C(=O)N(CCc3ccccc3)[C@H]3CC[C@H](C(=O)O)CC3)CC2)cc1 [3(24), 1-(4-amidinophenyl)-4-[N-(trans-4-carboxycyclohexyl)-N-(2-phenylethyl)-aminocarbonyl]-piperidine] | 0.0091 | 0.11 | –
N=C(N)c1ccc(N2CCC(C(=O)N(CCCc3ccccc3)[C@H]3CC[C@H](C(=O)O)CC3)CC2)cc1 [3(25), 1-(4-amidinophenyl)-4-[N-(trans-4-carboxycyclohexyl)-N-(3-phenylpropyl)-aminocarbonyl]-piperidine] | 0.004 | 0.052 | –
CCCCCN(C(=O)C1CCN(c2ccc(C(=N)N)cc2)CC1)[C@H]1CC[C@H](C(=O)O)CC1 [3(26), 1-(4-amidinophenyl)-4-[N-(trans-4-carboxycyclohexyl)-N-(n-pentyl)-aminocarbonyl]-piperidine] | 0.012 | 0.065 | –
CN(C(=O)N1CCN(c2ccc(C(=N)N)cc2)CC1)[C@H]1CC[C@H](C(=O)OC2CCCCC2)CC1 [7(2), 1-(4-amidinophenyl)-4-[N-[trans-4-(cyclohexyloxy-carbonyl)-cyclohexyl]-N-methyl-aminocarbonyl]-piperazine-dihydrochloride] | 2.1 | 0.36 | –
COC(=O)[C@H]1CC[C@H](NC(=O)N2CCN(c3ccc(CN)cc3)CC2)CC1 [Example 4, 1-(4-Aminomethylphenyl)-4-[N-[trans-4-(methoxycarbonyl)-cyclohexyl]-aminocarbonyl]-piperazine-hydrochloride] | 5.3 | 4.3 | –
CC(C)OC(=O)[C@H]1CC[C@H](NC(=O)N2CCN(c3ccc(C(=N)N)cc3)CC2)CC1 [Example 7, 1-(4-Amidinophenyl)-4-[N-[trans-4-(isopropoxycarbonyl)-cyclohexyl]-aminocarbonyl]-piperazine-dihydrochloride] | 1.2 | 0.28 | –
